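48-hour exposure; five concentrations; linearly interpolated endpoints. At the GI50, growth is halved.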 The source made the active and inactive calls. Rule as the data show it: active = GI50 up to about 1.1 µM and inactive = higher.
Experiments:
Assay in all cases: NCI tumour cell line growth inhibition, 48 h
A498 = tested on: A498
HOP-18 = tested on: HOP-18
NCI-H522 = tested on: NCI-H522
DLD-1 = tested on: DLD-1
OVCAR-4 = tested on: OVCAR-4
PC-3 = tested on: PC-3
MOLT-4 = tested on: MOLT-4
IGROV-1 = tested on: IGROV-1
SN12C = tested on: SN12C
HCT-116 = tested on: HCT-116
OVCAR-5 = tested on: OVCAR-5
K562 = tested on: K562
EKVX = tested on: EKVX
Malme-3M = tested on: Malme-3M
786-0 = tested on: 786-0
SK-MEL-5 = tested on: SK-MEL-5
KM-20L2 = tested on: KM-20L2
COLO 205 = tested on: COLO 205
CAKI-1 = tested on: CAKI-1
NCI-H226 = tested on: NCI-H226
SK-OV-3 = tested on: SK-OV-3
CCRF-CEM = tested on: CCRF-CEM
HOP-62 = tested on: HOP-62
M14 = tested on: M14
SF-268 = tested on: SF-268
Hs-578T = tested on: Hs-578T
DU-145 = tested on: DU-145
NCI-H460 = tested on: NCI-H460
HT-29 = tested on: HT-29
SK-MEL-28 = tested on: SK-MEL-28
MDA-MB-231 = tested on: MDA-MB-231
SF-539 = tested on: SF-539
SW-620 = tested on: SW-620
A549 = tested on: A549
KM12 = tested on: KM12
OVCAR-8 = tested on: OVCAR-8
DMS-114 = tested on: DMS-114
DMS-273 = tested on: DMS-273
SNB-78 = tested on: SNB-78
HCC 2998 = tested on: HCC 2998
RXF 393 = tested on: RXF 393
LXFL 529 = tested on: LXFL 529
ACHN = tested on: ACHN
HCT-15 = tested on: HCT-15
UO-31 = tested on: UO-31
SF-295 = tested on: SF-295
NCI-H23 = tested on: NCI-H23
HOP-92 = tested on: HOP-92
UACC-62 = tested on: UACC-62
UACC-257 = tested on: UACC-257
SNB-75 = tested on: SNB-75
U-251 = tested on: U-251
LOX IMVI = tested on: LOX IMVI
MDA-MB-435 = tested on: MDA-MB-435
SR = tested on: SR
SK-MEL-2 = tested on: SK-MEL-2
MDA-N = tested on: MDA-N
TK-10 = tested on: TK-10
XF498 = tested on: XF498
HL-60 = tested on: HL-60
OVCAR-3 = tested on: OVCAR-3
RPMI-8226 = tested on: RPMI-8226
BT-549 = tested on: BT-549
RXF 631 = tested on: RXF 631
M19-MEL = tested on: M19-MEL
T47D = tested on: T47D
SNB-19 = tested on: SNB-19

Cc1cc(NCCCCCCCNc2cc(C)nc3cc([N+](=O)[O-])ccc23)c2ccc([N+](=O)[O-])cc2n1
GI50 (A498): 10.8 µM (inactive) | GI50 (HOP-18): 17.3 µM (inactive) | GI50 (NCI-H522): 1.61 µM (inactive) | GI50 (DLD-1): 1.82 µM (inactive) | GI50 (OVCAR-4): 2 µM (inactive) | GI50 (PC-3): 13.5 µM (inactive) | GI50 (MOLT-4): 1.9 µM (inactive) | GI50 (IGROV-1): 9.44 µM (inactive) | GI50 (SN12C): 4 µM (inactive) | GI50 (HCT-116): 1.69 µM (inactive) | GI50 (OVCAR-5): 15.6 µM (inactive) | GI50 (K562): 1.28 µM (inactive) | GI50 (EKVX): 15.2 µM (inactive) | GI50 (Malme-3M): 29.6 µM (inactive) | GI50 (786-0): 4.8 µM (inactive) | GI50 (SK-MEL-5): 6.43 µM (inactive) | GI50 (KM-20L2): 10.8 µM (inactive) | GI50 (COLO 205): 9.23 µM (inactive) | GI50 (CAKI-1): 23.7 µM (inactive) | GI50 (NCI-H226): 18 µM (inactive) | GI50 (SK-OV-3): 24.9 µM (inactive) | GI50 (CCRF-CEM): 2.04 µM (inactive) | GI50 (HOP-62): 20.5 µM (inactive) | GI50 (M14): 10.7 µM (inactive) | GI50 (SF-268): 2.4 µM (inactive) | GI50 (Hs-578T): 1.86 µM (inactive) | GI50 (DU-145): 3.08 µM (inactive) | GI50 (NCI-H460): 2.04 µM (inactive) | GI50 (HT-29): 2.53 µM (inactive) | GI50 (SK-MEL-28): 4.34 µM (inactive) | GI50 (MDA-MB-231): 2.47 µM (inactive) | GI50 (SF-539): 8.63 µM (inactive) | GI50 (SW-620): 2.1 µM (inactive) | GI50 (A549): 3.69 µM (inactive) | GI50 (KM12): 1.85 µM (inactive) | GI50 (OVCAR-8): 1.87 µM (inactive) | GI50 (DMS-114): 1.38 µM (inactive) | GI50 (DMS-273): 4.29 µM (inactive) | GI50 (SNB-78): 15.9 µM (inactive) | GI50 (HCC 2998): 11.1 µM (inactive) | GI50 (RXF 393): 8.18 µM (inactive) | GI50 (LXFL 529): 1.56 µM (inactive) | GI50 (ACHN): 12.7 µM (inactive) | GI50 (HCT-15): 2.55 µM | GI50 (UO-31): 13.9 µM (inactive) | GI50 (SF-295): 5.9 µM (inactive) | GI50 (NCI-H23): 5.18 µM (inactive) | GI50 (HOP-92): 16.5 µM (inactive) | GI50 (UACC-62): 16.6 µM (inactive) | GI50 (UACC-257): 15.1 µM (inactive) | GI50 (SNB-75): 11.2 µM (inactive) | GI50 (U-251): 4.28 µM (inactive) | GI50 (LOX IMVI): 2 µM (inactive) | GI50 (MDA-MB-435): 11.7 µM (inactive) | GI50 (SR): 1.53 µM (inactive) | GI50 (SK-MEL-2): 24.7 µM (inactive) | GI50 (MDA-N): 1.78 µM (inactive) | GI50 (TK-10): 17.7 µM (inactive) | GI50 (XF498): 13.7 µM (inactive) | GI50 (HL-60): 0.451 µM (active) | GI50 (OVCAR-3): 4.38 µM (inactive) | GI50 (RPMI-8226): 1.87 µM (inactive) | GI50 (BT-549): 20 µM (inactive) | GI50 (RXF 631): 7.93 µM (inactive) | GI50 (M19-MEL): 12.4 µM (inactive) | GI50 (T47D): 3.52 µM (inactive) | GI50 (SNB-19): 10.3 µM (inactive)

— ChEMBL document CHEMBL1201862, “PubChem BioAssay data set” (2004)
